Columns and labels:
Format in all cases: cell-based
Burkholderia cepacia = assay: in vitro contact-time test on Burkholderia cepacia
Method: (§1) The solution from the example was tested in vitro on a mucoid strain of Pseudomonas aeruginosa, Burkholderia cepacia and Methicillin Resistant Staphylococcus Aureus.
Burkholderia cenocepacia J2315 (ATCC BAA 245 known to be resistant to Tobramycin and Colistin (Holden 2009, Soiza 2004)), derived from patients with cystic fibrosis.

[1] = system: mucoid strain of Pseudomonas aeruginosa; assay: in vitro contact-time test on a mucoid strain of Pseudomonas aeruginosa
Method: as §1

[2] = system: Methicillin Resistant Staphylococcus aureus (MRSA); assay: in vitro contact-time test on MRSA
Method: as §1
Methicillin Resistant Staphylococcus aureus (MRSA)

N#CSO [500 μM OSCN, hypothiocyanite]
bacterial count (Burkholderia cepacia; contact time 0 hours): 4.41 log CFU/ml | bacterial count (Burkholderia cepacia; contact time 0.5 hours): 3.64 log CFU/ml | bacterial count (Burkholderia cepacia; contact time 1 hour): 3.56 log CFU/ml | bacterial count (Burkholderia cepacia; contact time 2 hours): 3.03 log CFU/ml | bacterial count (Burkholderia cepacia; contact time 4 hours): 2.08 log CFU/ml | bacterial count (Burkholderia cepacia; contact time 6 hours): 1.98 log CFU/ml | bacterial count (Burkholderia cepacia; contact time 24 hours): 1.78 log CFU/ml | bacterial count ([1]; contact time 0 hours): 4.14 log CFU/ml | bacterial count ([1]; contact time 0.5 hours): 3.23 log CFU/ml | bacterial count ([1]; contact time 1 hour): 3.16 log CFU/ml | bacterial count ([1]; contact time 2 hours): 2.98 log CFU/ml | bacterial count ([1]; contact time 4 hours): 2.08 log CFU/ml | bacterial count ([1]; contact time 6 hours): 1.90 log CFU/ml | bacterial count ([1]; contact time 24 hours): 1.78 log CFU/ml | bacterial count ([2]; contact time 0 hours): 4.15 log CFU/ml | bacterial count ([2]; contact time 0.5 hours): 3.80 log CFU/ml | bacterial count ([2]; contact time 1 hour): 3.70 log CFU/ml | bacterial count ([2]; contact time 2 hours): 3.33 log CFU/ml | bacterial count ([2]; contact time 4 hours): 2.89 log CFU/ml | bacterial count ([2]; contact time 6 hours): 2.25 log CFU/ml | bacterial count ([2]; contact time 24 hours): 1.97 log CFU/ml

From US9078859B2, “Use of a synergistic combination of hypothiocyanite and/or hypohalite ions and lactoferrin for preparing a treatment for cystic fibrosis” (ALAXIA, priority 2009, dated 2015)
